Experimental findings from patent US20230000891A1, “HYBRID AMPHOTERICIN B DERIVATIVES WITH REDUCED TOXICITY” (The Board of Trustees of the University of Illinois, priority 2019, published 2023) are described below.

In brackets after ≈: the same amount, converted by molar mass. Read-outs that look alike come from different tables or passages of the source.

In one series the test system is A. fumigatus 1100. Briefly: Minimum Inhibition Concentration (MIC), antifungal activity. Format: cell-based.
In a further series the test system is C. krusei. Described as above. Format: cell-based.
Series [1] has as its system C. albicans. Described as above. Format: cell-based.
A further series relates to A. fumigatus 1163. The description is as above. Format: cell-based.
The next series deals with A. fumigatus 91. The description is as above. Format: cell-based.
The subject of another series is C. glabrata. Described as above. Format: cell-based.
The subject of a further series is C. tropicalis. The series is described as above. Format: cell-based.
Series [2] can be described thus: Isothermal titration calorimetry (ITC) sterol binding. To be noted: within the detection limits of ITC. The source says: This key discovery opened a path to the rational development of a non-toxic AmB variant. To probe its predicted role in sterol binding, the hydroxyl group was synthetically deleted at the C2′ position on the mycosamine appendage. […] Consistent with the sterol sponge model, this derivative retained good activity against yeast but, most importantly, was nontoxic to human red blood cells and primary (hREC) (FIG. 2B).
A practical 11-step synthesis of C2′epiAmB using a frontier site-selective acylation method was developed (FIG. 4). Wilcock, B. C. et al., Nat Chem 2012, 4 (12), 996-1003; Uno, B. E. A synthesis enabled understanding of Amphotericin B leading to derivatives with improved therapeutic indices. University of Illinois at Urbana-Champaign, 2014. The sterol binding and cell killing activities was then determined.

Series [3] concerns C. albicans. As to the kind of experiment: Murine model of invasive candidiasis. To be noted: single IP injection. Format: in vivo, Neutropenic ICR/Swiss mice. The source says: Andes, D. et al., Antimicrobial agents and chemotherapy 2001, 45 (3), 922-6. In fact, the PD parameter that best correlates with outcome is Cmax−/MIC. The same was subsequently observed in a pulmonary model of invasive aspergillosis. Wiederhold, N. P. et al., Antimicrobial agents and chemotherapy 2006, 50 (2), 469-73.

Series [4] has as its system C. albicans. Briefly: MIC with and without pre-complexation with ergosterol. Format: cell-based. To be noted: sponge pre-complexed with ergosterol. The source says: Anderson, T. M. et al., Nat Chem Biol 2014, 10 (5), 400-6. […] Davis, S. A., et al., Nat Chem Biol 2015, 11 (7), 481-7. To test whether C2′epiAmB primarily kills cells via the same sterol sponge mechanism, the C2′epiAmB sponge was similarly pre-complexed with ergosterol (FIG. 9). […] Thus, C2′epiAmB similarly kills yeast primarily via sterol binding, and, by extension, the new compounds targeted in this application are expected to have a similar barrier to fungal resistance that has been observed for the past 50+ years with AmB.

The test system of series [5] is 40 Aspergillus clinical isolates, including azole-resistant A. fumigatus, A. flavus, and A. terreus. As to the kind of experiment: Antifungal testing, extended panel of 40 Aspergillus clinical isolates (Fungus Testing Laboratory, UT-San Antonio). Format: cell-based. The source says:
(§1) In vitro antifungal activity of C2′epiAmB was compared with that of AmB against an extensive series of Candida and Aspergillus clinical isolates (FIG. 8A) at Evotec (Oxfordshire, UK). […] C2′epiAmB was also sent to the US national Fungus Testing Laboratory at UT-San Antonio for antifungal testing against an extended panel of especially challenging 40 Aspergillus clinical isolates, including azole-resistant A. fumigatus, A. flavus, and A. terreus (FIG. 8B). […] Recently, Steinbach and Burke directly compared the activity of AmB, AmBisome*, caspofungin, voriconazole, and C2′epiAmB against an even broader panel of clinically relevant invasive molds (FIG. 8C).

The test system of another series is human red blood cells. As to the kind of experiment: Toxicity to human red blood cells. Format: cell-based.
Series [6] in a line: Intravenous toxicity in rats (BUN, ALT/AST, mortality). Format: in vivo. Conditions: IV, 2, 10, and 17.5 mg/kg (highest dose tested). The method, then: >100 mg of C2′epiAmB was prepared, formulated it as the corresponding deoxycholate complex, and evaluated this derivative head-to-head with AmB-deoxycholate for toxicity and efficacy in animal models. […] Alternatively, no elevations in BUN or ALT/AST and no mortality when rats were treated with IV injections of C2′epiAmB at doses of 2, 10, and 17.5 mg/kg (the highest dose that was tested) was observed.

Another series deals with A. fumigatus. Briefly: In vitro antifungal activity, A. fumigatus strains (Evotec). Format: cell-based.
Excerpt: as §1

Series [7] relates to Candida and Aspergillus clinical isolates. Briefly: In vitro antifungal activity, clinical isolates (Evotec). Format: cell-based. To be noted: many Candida and several Aspergillus strains.
Excerpt: as §1

The next series deals with primary hREC. Briefly: Toxicity to primary human renal epithelial cells. Format: cell-based.
The next series relates to yeast. As to the kind of experiment: Activity against yeast / fungal cell killing. Format: cell-based.
Series [8] has as its system clinically relevant invasive molds. As to the kind of experiment: Antifungal activity, broader panel of clinically relevant invasive molds. Format: cell-based. Conditions: many strains, including a pan-azole resistant strain (F14196).
Excerpt: as §1

The nature of series [9]: Cmax after IV administration. Format: in vivo, rats. Conditions: C2′epiAmB at 17.5 mg/kg vs AmB at 1 mg/kg.

One may read the MIC as the lowest concentration found to suppress growth. Consider `COC(=O)[C@H]1[C@@H]2C[C@@H](O[C@@H]3O[C@H](C)[C@@H](O)[C@H](N)[C@H]3O)/C=C/C=C/C=C/C=C/C=C/C=C/C=C/[C@H](C)[C@@H](O)[C@@H](C)[C@H](C)OC(=O)C[C@H](O)C[C@H](O)CC[C@@H](O)[C@H](O)C[C@H](O)C[C@](O)(C[C@@H]1O)O2` [C2'epiAmBME], for which the MIC against A. fumigatus 1100 amounted to 4 µM (≈ 3.75 µg/mL); against C. krusei it was 2 µM (≈ 1.88 µg/mL); in the series with C. albicans [1], 1 µM (≈ 0.938 µg/mL); against A. fumigatus 1163, 4 µM (≈ 3.75 µg/mL); against A. fumigatus 91, 4 µM (≈ 3.75 µg/mL); against C. glabrata it was 4 µM (≈ 3.75 µg/mL). In addition, the minimal inhibitory concentration (MIC) in the series with C. tropicalis came out at 2 µM (≈ 1.88 µg/mL).

For the compound `C[C@@H]1[C@H](O)[C@@H](C)/C=C/C=C/C=C/C=C/C=C/C=C/C=C/[C@H](O[C@@H]2O[C@H](C)[C@@H](O)[C@H](N)[C@H]2O)C[C@@H]2O[C@](O)(C[C@@H](O)C[C@@H](O)[C@H](O)CC[C@@H](O)C[C@@H](O)CC(=O)O[C@H]1C)C[C@H](O)[C@H]2C(=O)O` [C2′epiAmB], the MIC against A. fumigatus 1100 is 32 µM (≈ 29.6 µg/mL); against C. krusei, 4 µM (≈ 3.7 µg/mL); in the series on C. albicans [1] it was 4 µM (≈ 3.7 µg/mL); with A. fumigatus 1163 it was over 64 µM; with A. fumigatus 91, over 64 µM; against C. glabrata, 8 µM (≈ 7.39 µg/mL). The same compound displayed a minimum inhibitory concentration (MIC) in the series on C. tropicalis of 4 µM (≈ 3.7 µg/mL). Besides, the “cholesterol binding by ITC” value in [2] is on record as “not (detectably) cholesterol”. For the same compound, the “ergosterol binding by ITC” value in series [2] is “bind ergosterol”. For the same compound, in the series with C. albicans [3] (16 mg/kg dose), the fungal burden result is listed as “outstanding reductions in fungal burden”. For the same compound, in the series with C. albicans [3] (deoxycholate complex, 1, 4, 8, or 16 mg/kg), the efficacy result was “dose-dependent efficacy”. For the same compound, in the series on C. albicans [4], the “change in potency upon ergosterol pre-complexation” value was “same reduction in potency”. Besides, the “average potency relative to AmB (less potent)” value in series [5] (average across all 40 strains) is 5.6 fold. Moreover, the “potency relative to AmB (less potent)” value is given as 2-16 times in series [5] (range over 40 Aspergillus clinical isolates); over 32 times with A. fumigatus (A. fumigatus strain AF91); 4 fold in the series on A. fumigatus (A. fumigatus strains AF293, A1163, and ATC204305). Further, in the series with human red blood cells, the “toxicity to human red blood cells” value is recorded as “non-toxic”. For the same compound, the ALT/AST result in [6] is “no elevations”. Besides, the “Blood Urea Nitrogen (BUN)” value in series [6] is given as “no elevations”. For the same compound, the mortality result in series [6] is given as “no mortality”. Also, the “in vitro antifungal activity” value in [7] is “good activity”. Besides, the “toxicity to primary hREC” value in the series with primary hREC is given as “non-toxic”. The “activity against yeast / fungal cells” value with yeast is listed as “kill fungal”. In series [8], the antifungal potency entry was “good antifungal potency”. In series [9], the “Cmax relative to Cmax for AmB at 1 mg/kg” value is recorded as over 16 fold.

With `C[C@@H]1[C@H](O)[C@@H](C)/C=C/C=C/C=C/C=C/C=C/C=C/C=C/[C@H](OC2O[C@H](C)[C@@H](O)[C@H](N)[C@@H]2O)CC2O[C@](O)(CC(O)CC(O)[C@H](O)CCC(O)CC(O)CC(=O)O[C@H]1C)CC(O)[C@H]2C(=O)O` (stereo partly shown) [AmB, Amphotericin B], the minimum inhibitory concentration (MIC) was determined as 2 µM (≈ 1.85 µg/mL) against A. fumigatus 1100 (Aspergillus fumigatus); 2 µM (≈ 1.85 µg/mL) in the series on C. krusei (Pichia kudriavzevii); 0.5 µM (≈ 0.462 µg/mL) against C. albicans [1] (Candida albicans); 2 µM (≈ 1.85 µg/mL) against A. fumigatus 1163 (Aspergillus fumigatus); 2 µM (≈ 1.85 µg/mL) in the series with A. fumigatus 91 (Aspergillus fumigatus); 0.5 µM (≈ 0.462 µg/mL) against C. glabrata (Nakaseomyces glabratus). In the series with C. tropicalis (Candida tropicalis), this compound gave a minimum inhibitory concentration (MIC) of 2 µM (≈ 1.85 µg/mL). For the same compound, the “change in potency upon ergosterol pre-complexation” value in the series on C. albicans [4] is given as “same reduction in potency”.
